Values after ≈ are worked out from the molar mass of the structure shown. Like-named read-outs stand apart in the source and are kept apart here. Marks after values point to notes of the source that are not given here. Where a SMILES comes first, the peptide text is derived from it. The star is where a group is joined. Myristoyl = CCCCCCCCCCCCCC(=O)*; Lauroyl = CCCCCCCCCCCC(=O)*; Octanoyl = CCCCCCCC(=O)*
Key:
[1] = test system: C. albicans ATCC 10231; test: microbe, parasite or virus in culture; format: cell-based, Candida albicans; conditions: Candida albicans, ATCC10231; C. albicans; RPMI 1640, inoculum ca. 5 × 10^3 CFU/mL, range 0.5–256 mg/L, 48 h, 25 °C, read visually, three times on three days; read-out: Minimum inhibitory concentration (MIC), C. albicans
Protocol: (§1) Fungal strains were purchased from the Polish Collection of Microorganisms (Polish Academy of Science, Wroclaw, Poland). Four reference strains of Candida (C. albicans ATCC 10231, C. glabrata ATCC 15126, C. lypolytica PCM 2680, and C. tropicalis PCM 2680) were cultured on the Dextrose Sabouraud Agar (DSA, Neogen, Lansing, MI, USA). Before performing the assays, the fungi were cultured in a Sabouraud dextrose broth (DSB, Neogen, Lansing, MI, USA) for 48 h under aerobic conditions at 25 °C. Afterward, the fungal cultures were centrifuged (2500 rpm, 10 min) and resuspended in the appropriate liquid medium for appropriate inoculums for the performed assays.
(§2) The strains cultured described in Section 4.1 were suspended in the Roswell Park Memorial Institute 1640 Medium (RPMI, Sigma-Aldrich, St. Louis, MO, USA) at an initial inoculum of ca. 5 × 10^3 CFU/mL. The stock solutions (1024 mg/L) of tested compounds in RPMI were added to 96-well polystyrene plates and diluted serially to well no. 10, leaving wells 11 and 12 for fertility and sterility controls. The tested Candida strains were exposed to graded concentrations (range 0.5–256 mg/L) of the lipopeptides and conventional antifungals (benzalkonium chloride, fluconazole, and nystatin) for 48 h under aerobic conditions at 25 °C. After incubation, the results were read visually.

[2] = test system: C. albicans ATCC 10231; test: microbe, parasite or virus in culture; format: cell-based, Candida albicans; conditions: Candida albicans, ATCC10231, MIC wells and two higher concentrations seeded on DSA, 48 h, 25 °C, read visually, three times, read-out: Minimum fungicidal concentration (MFC), C. albicans
Protocol: as §1, §2
(§3) Then the results were read visually. Both MIC as well as the MFC assays were performed threetimes on three different days.

[3] = test system: C. glabrata ATCC 15126; test: microbe, parasite or virus in culture; format: cell-based, Candida glabrata; conditions: Nakaseomyces glabratus, ATCC15126; first C. glabrata column; RPMI 1640, inoculum ca. 5 × 10^3 CFU/mL, range 0.5–256 mg/L, 48 h, 25 °C, read visually, three times on three days; read-out: Minimum inhibitory concentration (MIC), C. glabrata
Protocol: as §1, §2

[4] = test system: C. glabrata ATCC 15126; test: microbe, parasite or virus in culture; format: cell-based, Candida glabrata; conditions: Nakaseomyces glabratus, ATCC15126, MIC wells and two higher concentrations seeded on DSA, 48 h, 25 °C, read visually, three times, read-out: Minimum fungicidal concentration (MFC), C. glabrata
Protocol: as §1, §2, §3

[5] = test system: C. lypolytica PCM 2680; test: microbe, parasite or virus in culture; format: cell-based, Candida lipolytica; conditions: Yarrowia lipolytica, PCM2680, RPMI 1640, inoculum ca. 5 × 10^3 CFU/mL, range 0.5–256 mg/L, 48 h, 25 °C, read visually, three times on three days, read-out: Minimum inhibitory concentration (MIC), C. lipolytica
Protocol: as §1, §2

[6] = test system: C. lypolytica PCM 2680; test: microbe, parasite or virus in culture; format: cell-based, Candida lipolytica; conditions: Yarrowia lipolytica, PCM2680, MIC wells and two higher concentrations seeded on DSA, 48 h, 25 °C, read visually, three times, read-out: Minimum fungicidal concentration (MFC), C. lipolytica
Protocol: as §1, §2, §3

[7] = test system: C. tropicalis PCM 2680; test: microbe, parasite or virus in culture; format: cell-based, Candida tropicalis; conditions: Candida tropicalis, PCM2680; C. tropicalis; RPMI 1640, inoculum ca. 5 × 10^3 CFU/mL, range 0.5–256 mg/L, 48 h, 25 °C, read visually, three times on three days; read-out: Minimum inhibitory concentration (MIC), C. tropicalis
Protocol: as §1, §2

[8] = test system: C. tropicalis PCM 2680; test: microbe, parasite or virus in culture; format: cell-based, Candida tropicalis; conditions: Candida tropicalis, PCM2680, MIC wells and two higher concentrations seeded on DSA, 48 h, 25 °C, read visually, three times, read-out: Minimum fungicidal concentration (MFC), C. tropicalis
Protocol: as §1, §2, §3

[9] = test system: C. albicans biofilms cultured on polystyrene; format: cell-based, Candida albicans
Protocol: as §1
Fungal suspensions in DSB were added to the wells at initial inoculums of ca. 5 × 10^6 CFU/mL and incubated under aerobic conditions, at 25 °C for 24 h, 48 h, and 72 h, in order to grow candidal biofilms of different maturity. After the appropriate time of incubation, the wells were washed with phosphoric buffered (PBS), and fresh RPMI medium supplemented with antifungals and the lipopeptides at graded concentrations (range […]) were added. The fungal biofilms were exposed to the compounds for 24 h (aerobic conditions, 25 °C). After the exposure to antifungals, the content of the wells was aspirated and a 0.01% solution of resazurin (Sigma-Aldrich, St. Louis, MO, USA) in DSB was added. Resazurin (blue) was applied as a cell viability reagent, which upon contact with living cells is reduced to a pink resorufin. The samples with the dye were incubated for 1 h at 25 °C and the absorbance was measured at 570 and 600 nm with a microplate reader (Thermo Fisher Scientific, Waltham, MA, USA). The assays were performed four times on four different days. The results are presented as the means of the measured percentage of metabolic activity (MA) of fungi in the well when compared with positive (sample with Candida in DSB) and negative controls (pure DSB), which were taken as 100% and 0%, respectively. The MA of Candida in the samples was measured according to the following formula:MA(%) = (ΔAbs of sample − ΔAbs of negative control)/(ΔAbs of positive control − ΔAbs of negative control);(1) ΔAbs = absorbance at 570 nm − absorbance at 600 nm.(2)
The MBEC was taken as the lowest concentration of antifungal which allowed us to reduce the metabolism of fungal cells to 10% (or less) of the positive control.

[10] = test system: Candida strains (C. albicans, C. glabrata, C. lipolytica, C. tropicalis); format: cell-based; conditions: for MIC, range over the tested strains: 48 h
Protocol: as §1, §2, §3

[11] = test system: C. albicans biofilms cultured on polystyrene; format: cell-based, Candida albicans; conditions: C. albicans biofilms of 24, 48 and 72 h, up to 512 mg/L
[12] = test system: human red blood cells; conditions: cited from earlier work
Source text: Table 2 Minimum inhibitory concentrations (MIC) and minimum fungicidal concentrations (MFC) determined for peptides and reference antifungals [g/L]. The highest antimicrobial activity is marked in green, medium values in yellow, while the weakest antifungal activity is marked in red. Minimum hemolytic concentration (MHC5%—causing hemolysis of 5% of human red blood cells) determined in previous stu | column: MHC5%

[13] = test system: Staphylococcus aureus biofilm; conditions: previous study; ref [21]; cited from earlier work
Source text: Lipidation has proven to be an effective strategy for improving the microbiological properties of the KR12-NH2 peptide. […] The influence of the structure of substituted fatty acids as well as the lipidation pattern was noticed. Among derivatives containing linear fatty acid residues, an analog with octanoic acid turned out to be the most promising antibacterial agent. The C8-KR12-NH2 peptide (compound IV) inhibited the growth of both Gram-p ...

[14] = biofilms cultured on polystyrene, 24 h
[15] = biofilms cultured on polystyrene, 48 h
[16] = biofilms cultured on polystyrene, 72 h

SMILES | MIC [1] | MFC [2] | MIC [3] | MFC [4] | MIC [5] | MFC [6] | MIC [7] | MFC [8] | MBEC 24 h ([9]; C. albicans biofilm cultured on polystyrene for 24 h, exposure 24 h, 25 °C, RPMI, resazurin, metabolic activity reduced to 10% or less, four times on four days) | MBEC 48 h ([9]; C. albicans biofilm cultured on polystyrene for 48 h, exposure 24 h, 25 °C, RPMI, resazurin, metabolic activity reduced to 10% or less, four times on four days) | MBEC 72 h ([9]; C. albicans biofilm cultured on polystyrene for 72 h, exposure 24 h, 25 °C, RPMI, resazurin, metabolic activity reduced to 10% or less, four times on four days) | Fungicidal activity (MFC relative to MIC) ([10]; MFCs equal to or twice as high as the corresponding MICs) | Antibiofilm activity against any type of biofilm [11] | MHC5% (minimum hemolytic concentration causing hemolysis of 5% of human red blood cells) [12] | MBEC against Staphylococcus aureus biofilm [13] | MBEC 24 h [9, 14] | MBEC 48 h [9, 15] | MBEC 72 h [9, 16] | MIC, range over the tested strains [10]
OC(Cn1cncn1)(Cn1cncn1)c1ccc(F)cc1F [Fluconazole, fluconazole, reference compound] | 4000 µg/mL (≈ 13.1 mM) | 8000 µg/mL (≈ 26.1 mM) | 500 µg/mL (≈ 1.63 mM) | 2000 µg/mL (≈ 6.53 mM) | 2000 µg/mL (≈ 6.53 mM) | 8000 µg/mL (≈ 26.1 mM) | 2000 µg/mL (≈ 6.53 mM) | 8000 µg/mL (≈ 26.1 mM) | >512 * mg/L | >512 * mg/L | >512 * mg/L | fungicidal activity against C. albicans and C. glabrata | showed no antibiofilm activity | – | – | – | – | – | –
CCCCCCCC(=O)N[C@@H](CCCCN)C(=O)N[C@@H](CCCNC(=N)N)C(=O)N[C@H](C(=O)N[C@H](C(=O)N[C@@H](CCC(N)=O)C(=O)N[C@@H](CCCNC(=N)N)C(=O)N[C@H](C(=O)N[C@@H](CCCCN)C(=O)N[C@@H](CC(=O)O)C(=O)N[C@@H](Cc1ccccc1)C(=O)N[C@@H](CC(C)C)C(=O)N[C@@H](CCCNC(=N)N)C(N)=O)[C@@H](C)CC)C(C)C)[C@@H](C)CC [IV, C8-KR12-NH2] (Octanoyl-KRIVQRIKDFLR-NH2) | – | – | – | – | – | – | – | – | – | – | – | – | – | 64 g/L | 4 to 16 mg/L | – | – | – | –
CCCCCCCCCCCC(=O)N[C@@H](CCCCN)C(=O)N[C@@H](CCCNC(=N)N)C(=O)N[C@H](C(=O)N[C@H](C(=O)N[C@@H](CCC(N)=O)C(=O)N[C@@H](CCCNC(=N)N)C(=O)N[C@H](C(=O)N[C@@H](CCCCN)C(=O)N[C@@H](CC(=O)O)C(=O)N[C@@H](Cc1ccccc1)C(=O)N[C@@H](CC(C)C)C(=O)N[C@@H](CCCNC(=N)N)C(N)=O)[C@@H](C)CC)C(C)C)[C@@H](C)CC [VI, C12-KR12-NH2] (Lauroyl-KRIVQRIKDFLR-NH2) | – | – | – | – | – | – | – | – | – | – | – | – | – | 4 g/L | 64 to 256 mg/L | 512 mg/L | >512 * mg/L | >512 * mg/L | 4 to 8 µg/mL
CCCCCCCCCCCCCC(=O)N[C@@H](CCCCN)C(=O)N[C@@H](CCCNC(=N)N)C(=O)N[C@H](C(=O)N[C@H](C(=O)N[C@@H](CCC(N)=O)C(=O)N[C@@H](CCCNC(=N)N)C(=O)N[C@H](C(=O)N[C@@H](CCCCN)C(=O)N[C@@H](CC(=O)O)C(=O)N[C@@H](Cc1ccccc1)C(=O)N[C@@H](CC(C)C)C(=O)N[C@@H](CCCNC(=N)N)C(N)=O)[C@@H](C)CC)C(C)C)[C@@H](C)CC [VII, C14-KR12-NH2] (Myristoyl-KRIVQRIKDFLR-NH2) | – | – | – | – | – | – | – | – | – | – | – | – | – | 4 g/L | 64 to 256 mg/L | 256 mg/L | 256 mg/L | 512 mg/L | 4 to 8 µg/mL

— PMC11990879, “Anticandidal Activity of Lipopeptides Containing an LL-37-Derived Peptide Fragment KR12” (Molecules, 2025)
